In PubChem BioAssay (NCI):
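Cells were grown in 96-well plates and exposed to each compound for 48 hours at five concentrations; endpoints were interpolated linearly between bracketing concentrations, or set to the highest concentration if not reached. GI50 is the concentration that inhibits growth by half. TGI: concentration producing complete growth inhibition.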

Columns and labels:
Experiment in all cases: NCI anticancer screen, dose series, 48 h
SNB-75 CNS = system: SNB-75 CNS
U251 CNS = system: U251 CNS
SF-539 CNS = system: SF-539 CNS
786-0 renal = system: 786-0 renal
OVCAR-5 ovarian = system: OVCAR-5 ovarian
RPMI-8226 leukemia = system: RPMI-8226 leukemia
UACC-62 melanoma = system: UACC-62 melanoma
NCI-H23 lung = system: NCI-H23 lung
EKVX NSCLC = system: EKVX NSCLC
A498 renal = system: A498 renal

SMILES	GI50 (SNB-75 CNS) [µM]	TGI (SNB-75 CNS) [µM]	GI50 (U251 CNS) [µM]	TGI (U251 CNS) [µM]	GI50 (SF-539 CNS) [µM]	TGI (SF-539 CNS) [µM]	GI50 (786-0 renal) [µM]	TGI (786-0 renal) [µM]	GI50 (OVCAR-5 ovarian) [µM]	TGI (OVCAR-5 ovarian) [µM]	GI50 (RPMI-8226 leukemia) [µM]	TGI (RPMI-8226 leukemia) [µM]	GI50 (UACC-62 melanoma) [µM]	TGI (UACC-62 melanoma) [µM]	GI50 (NCI-H23 lung) [µM]	TGI (NCI-H23 lung) [µM]	GI50 (EKVX NSCLC) [µM]	TGI (EKVX NSCLC) [µM]	GI50 (A498 renal) [µM]	TGI (A498 renal) [µM]
C=CCCC(O)c1ccc(CCCCCCCCCCC)o1 (centres undefined)	14.2	28.6	17.5	31.5	18.9	34.3	16.3	30.5	18.3	35.9	14	38.6	12.3	25	19.3	40.6	18.2	32.9		
COc1cc(C2C(C(=O)OCc3ccccc3)=C(C)NC(C)=C2C(=O)OCc2ccccc2)cc(OC)c1OC	4.69	> 100	4.37	> 100	3.99	> 100	1.46	> 100			2.09	> 100	3.62	> 100			2.81	> 100	1.75	> 100
O=C1c2ccccc2CCC1(Br)Br	3.23	16.2	5.67	15.9	1.88	3.74	2.21	4.55	1.76	3.25	1.99	4.9	1.96	4.54	1.99	4.9			7.69	20.9
COC(=O)C1=C(C)N(NC(=O)c2cccc(Cl)c2)C(C)(O)C12CCOC2=O (centres undefined)		> 100		> 100		> 100		> 100		> 100		> 100		> 100				> 100		> 100
CCOC(=O)NN(C(=O)OCC)C(C(=O)c1ccc(Cl)cc1)=C1NCCN1		> 100		> 100		> 100		> 100		> 100				> 100		> 100		> 100		> 100
O=C(NCCCCCCNC(=O)NC1OCC(O)C(O)C1O)NC1OCC(O)C(O)C1O (centres undefined)		> 100		> 100		> 100		> 100		> 100		> 100		> 100		> 100		> 100		
CC(=O)OCc1c(C)c2ccccc2n1C(C)=O		> 100		> 100		> 100		> 100		> 100				> 100		> 100		> 100		> 100
O=C(NCc1cccs1)OC1CC2CCC1C2 (centres undefined)				> 100		> 100		> 100		> 100		> 100		> 100		> 100		> 100		> 100
C[CH2][Sn]([Cl])([CH2]C)[CH2]C	0.255	0.549	0.771	2.97	1.01	2.91	1.01	3.63	3.33	8.33	0.399	9.17	0.515	11.5	0.556	4.84	1.06	11.6		
CC(=O)Nc1ccc(S(=O)(=O)c2ccc(NC(C)=O)cc2)cc1							> 100	> 100	> 100	> 100	> 100	> 100	> 100	> 100	> 100	> 100	64	> 100	81.4	> 100
Nc1nc(Cl)nc2c1ncn2C1CCC(COP(=O)(O)OP(=O)(O)OP(=O)(O)O)O1 (centres undefined)		94.2		> 100		> 100		> 100		93.3				47.9		41.6		> 100		> 100
CC1=C2[C@@H](c3ccccc3)C3C=CC2(c2ccccc23)N(C(=O)Nc2cccc3ccccc23)C1=O (some centres undefined)				> 100		> 100		> 100		> 100		> 100		> 100		> 100		> 100		> 100
CN/N=C(/CC(=O)c1sc(-n2nc(-c3ccccc3)cc2-c2ccccc2)nc1C)C(=O)Nc1ccc(Cl)c(Cl)c1				> 100		> 100		> 100		69.6		> 100		> 100		> 100		17.7		> 100
Cc1nn(-c2ccccc2)c(C)c1/C=N/N1CCN(Cc2ccccc2)CC1	99	> 100	67.5	> 100	76.4	> 100	22.9	97.4	> 100	> 100	19.9	48.9	33.8	> 100	41.7	> 100	> 100	> 100		
O=c1nc(-c2ccccc2)scc1-c1ccccc1		> 100		> 100		> 100		> 100				> 100		> 100		> 100		> 100		
O=C(O)CP(=O)(c1ccccc1)c1ccccc1.O=C(O)CP(=O)(c1ccccc1)c1ccccc1.[Cd]	16	32.4	14.3	28.9	11.4	26.2	19.3	60	16	30.6	0.277	0.991	2.2	6.31	20.2	41.9			19.9	39.8
Cc1csc(-c2ccc3c(c2)COC3(CCCN(C)C)c2ccc(F)cc2)c1 (centres undefined)	1.2	2.61	1.85	3.76	1.8	3.22	1.8	3.39	1.63	3.05	2.2	4.76	1.78	3.36	1.83	3.44	1.77	3.48		
O=C(CC(=O)c1cccc([N+](=O)[O-])c1)C(=O)Nc1nc([N+](=O)[O-])cs1				> 100		> 100		> 100		> 100		> 100		> 100		> 100		> 100		> 100

SMILES	GI50 (SNB-75 CNS) [µM]	TGI (SNB-75 CNS) [µM]	GI50 (U251 CNS) [µM]	TGI (U251 CNS) [µM]	GI50 (SF-539 CNS) [µM]	TGI (SF-539 CNS) [µM]	GI50 (786-0 renal) [µM]	TGI (786-0 renal) [µM]	GI50 (OVCAR-5 ovarian) [µM]	TGI (OVCAR-5 ovarian) [µM]	GI50 (RPMI-8226 leukemia) [µM]	TGI (RPMI-8226 leukemia) [µM]	GI50 (UACC-62 melanoma) [µM]	TGI (UACC-62 melanoma) [µM]	GI50 (NCI-H23 lung) [µM]	TGI (NCI-H23 lung) [µM]	GI50 (EKVX NSCLC) [µM]	TGI (EKVX NSCLC) [µM]	GI50 (A498 renal) [µM]	TGI (A498 renal) [µM]
O=C1C(Cl)=C(Nc2cccc(O)c2)C(=O)N1c1ccc(Cl)cc1Cl			19	66.7			32.8	> 100	40.2	> 100	7.55	30.7	21.4	57.7	24.9	88.7	57.3	> 100		
COc1ccc(C(=O)c2cc(OC)c(OC)c(OC)c2)cc1/C=C/C(=O)c1ccc2c(c1)OCO2	3.11	15.6					2.28	5.84	2.64	8.19					2.67	8.22			2.43	16.7
COc1cccc(N2C(=O)[C@H]3[C@H]4CC(C(C)(C)C)CC[C@H]4c4c([nH]c5ccccc45)[C@H]3C2=O)c1 (some centres undefined)		30.1				42.1		30.1				35		28.3		40.9		40.6		
CC(=O)OC1CC(C)c2c(Cl)ncnc21 (centres undefined)	> 100	> 100			> 100	> 100	> 100	> 100	> 100	> 100	> 100	> 100	> 100	> 100	> 100	> 100			> 100	> 100
CNC(=O)OCc1cc2ccncc2c2c1[nH]c1ccccc12		> 80.3		> 100		> 100		> 100		> 100		> 100		> 100		> 100		> 100		
COc1ccc2cc(C(=O)/C=C/c3ccco3)ccc2c1	> 100	> 100	28.5	97.4			10.4	> 100			32	99.3	26.6	> 100	19.5	42.7	6.33	26.2		
CO[C@]12CCC(=O)N1C=Cc1c2[nH]c2ccccc12		> 100				> 100		> 100		> 100		> 100		> 100		> 100		> 100		> 100
Cc1cc2c(=O)c3ccccc3oc2c(C#N)c1C		> 100		> 100				> 100		> 100		> 100				> 100		> 100		> 100
O=C(Nc1cccc(-n2cc(-c3ccncc3)c(-c3ccc(O)c(Cl)c3)n2)c1)c1ccc(N2CCOCC2)c(C(F)(F)F)c1	0.745	> 50	0.917	> 50	1.04	> 50	0.982	> 50	> 50	> 50	1.04	4.24	> 50	> 50	3.95	> 50			> 50	> 50
Cc1ccc(C)c(N2C(=O)C(=O)c3c(C)ccc(C)c32)c1		> 100		35.2		36.4		> 100		> 100				34.8		70		> 100		
COc1ccc2c([nH]c3cc(O)c(C)cc32)c1CC=C(C)C			5.89	13.7	8.01	> 25	4.4	8.61		> 25		> 25	9.11	> 25						
N=C(N)c1ccc(-c2ccc(-c3ccc(Cl)c(Cl)c3)o2)nc1	1.35	2.69			1.63	3.04	1.99	3.83	1.57	3.01	2.33	5.19			2.02	4.59	1.86	3.76	9.98	28.5
N#C/C(=C\c1ccc([N+](=O)[O-])s1)c1nc2cc(Br)ccc2s1	0.355		0.298	0.986	0.236	0.638	2.68	> 100			0.246	0.856			0.279	1.35	0.246	1.1	8.05	> 100
COc1cc(CCNc2nc3cc(N)cc(N)c3nc2-c2ccccc2)cc(OC)c1	1.37	2.85	1.67	3.11	2.19	4.14	2	3.99	1.83	3.69			1.81	3.36	1.59	3.58	1.8	3.4	3.95	14.3
CCCCC/C=C\C/C=C/CCCCCCCCNC(=O)Nc1ccc([N+](=O)[O-])cc1	22.9	> 100	6.05	> 100	41.4	> 100	29.5	> 100	30.8	> 100	4.54	39.5	2.9	> 100	5.19	72	23.8	> 100		
C/C=C/C=C\C(=O)C1c2cccc(O)c2C(=O)c2c(O)cc(C)cc21 (centres undefined)		2.74		1.63		1.52		3.93		3.33		7.26				3.65		13.4		7.76
CN1CCc2cc(O)c3cc2C1Cc1ccc(cc1)Oc1cc(ccc1O)CC1c2c(cc4c(c2O3)OCO4)CCN1C (centres undefined)		39.4		> 100		32.6		> 100		87.7				47.5		> 100		70.7		
